The source of these data is US20160051493A1, “METHODS OF TREATMENT OF KERATINOCYTE-DERIVED LESIONS” (THE TRUSTEES OF COLUMBIA UNIVERSITY IN THE CITY OF NEW YORK, priority 2012, published 2016).

Each structure is given as a SMILES string. “Also recorded” adds a separate entry of the source.

For data set [1] the following is noted: cited from earlier work.
For data set [2], the system named is normal human keratinocytes. Briefly: Keratinocyte cell counts (DAPI), morphology and EdU proliferation assay after 24 h treatment. The note with it: 24 hours. As to the method: (§1) Normal human keratinocytes were isolated from human foreskins by undergoing two enzymatic dissociation steps, first in dispase then in trypsin. Cells were cultured in EpiLife supplemented with human keratinocyte growth supplement (HKGS; Invitrogen). For all experiments with undifferentiated cells, keratinocytes were harvested or images at ˜75% confluency. Differentiation was induced by adding CaCl2 to the EpiLife media to reach a final [Ca2+] of 1.2 mM. Cells were typically cultured for 3 days under differentiation conditions before they were assayed. Keratinocytes were cultured for <5 passages. Purified Camphor (CAS #76-22-2), 2-APB (Tocris) or vehicle (1% EtOH)-containing media were used as indicated.
Cells were treated with 2-APB or camphor for 24 hours at 37° C., exposed to EdU for 45 min, fixed and stained with DAPI for cell counting. EdU Click-It assays (Invitrogen) were used to assess cell-cycle entry. The cells were then fixed and stained with DAPI. Three fields per well were assayed via a 20× objective and there were 4 wells per treatment in each experiment. EdU=5-ethynyl-2′-deoxyuridine.
As Ca^2+ triggers the commitment switch from proliferation to differentiation in keratinocytes, it was reasoned that increasing intracellular calcium by incubating keratinocytes in TRP agonists might be sufficient to induce this cell-fate switch in low-calcium growth media. To test this hypothesis, normal human keratinocytes were cultured for 24 hours under low-Ca^2+ conditions in the presence of low (12.5 μM), half-maximal (50 μM) and saturating (100 μM) concentrations of 2-APB (FIG. 3A) or camphor (0-8 mM) (FIG. 3E). These TRP agonists were chosen because they reliably elicited intracellular calcium signaling in normal human keratinocytes (FIG. 1A-1E).
As camphor can activate both TRPV3 and TRPV1 channels, these experiments were repeated in the presence of a specific TRPV1 antagonist, AMG-9810 (Gavva et al., 2005).

Data set [3] relates to SCC-13 cells. Briefly: Live-cell calcium imaging of SCC cell line SCC-13. Type of data set: cell-based, human. As to conditions: 10 mM camphor; compared with proliferating keratinocytes. How it is done:
(§2) Human keratinocytes and SCC cells were washed in Ringer's solution (in mM: NaCl 140, KCl 5, D-glucose 10, HEPES 10, CaCl2 2, MgCl2 2, pH 7.2) and loaded with 5 μM fura-2AM and 1 μM pluronic (Invitrogen) for 30 minutes in the dark. During live-cell imaging, saturating concentrations of TRP agonists (10 mM Camphor, 100 μM 2-APB 1 μM Capsaicin, 300 μM Mustard oil or 3 μM 4αPDD) in Ringer's were used. Cells were imaged for 20 s to establish a baseline and then acutely treated with each agonist for 60 seconds. Imaging was performed on an Olympus IX81 microscope with a 20× (NA 0.17) objective and a Hamamatsu ORCA-R2 camera. 340- and 380-nm excitation and 540-nm emission filters were used to capture fura-2 fluorescence. Data are expressed as a ratio of fluorescent signals (340/380). All data acquisition was performed in MetaFluor. Data analysis was performed with custom algorithms in IgorPro. Cells with baseline levels ±2 SD above the mean were excluded from analysis as unhealthy. Responders were designated as cells whose 340/380 ratio was ≧20% above baseline.
(§3) Moreover, their responses to camphor mirror their respective levels of TRP channel expression.

Data set [4] deals with TRPV1 (Rattus norvegicus, UniProt O35433). As to conditions: Activation; cited from earlier work.
Data set [5] deals with keratin 10 (K10). Put plainly: Western blot of keratin 10 in epidermal lysates after topical camphor. As to conditions: 5 days. Type of data set: in vivo, FVB mice. As to the method:
To determine whether topical camphor treatment promotes keratinocyte differentiation in vivo, a separate cohort of adult female FVB mice were treated twice daily for a period of 5 days with increasing concentrations of topical camphor (0, 15%, 20% or 30% (wt/wt) camphor in acetone; N=3-4 mice per group). One day after the final topical dose, mice were sacrificed and epidermal lysates were prepared for immunoblot analysis according to standard protocols (Owens et al., J. Invest. Dermatol. 1996). […] Protein levels were detected by peroxidase activated luminol exposure to X-ray film and estimated by densitometry using NIH-Image J software. Levels of K10 were normalized to levels of beta-tubulin for each sample; therefore, data are expressed as the ratio of K10 to beta-tubulin (K10/beta-tubulin). […]
To determine whether topical camphor treatment promotes keratinocyte differentiation in vivo, adult female FVB mice (n=3-4 per group) were treated twice daily for a period of 5 days with increasing concentrations of topical camphor (15%, 20% or 30% (wt/wt)) or vehicle only. […] It was determined that topical camphor treatment upregulates levels of a keratinocyte terminal differentiation marker in vivo.
On the technique in general: In western blotting, separated proteins are transferred to a membrane and probed.

For data set [6] the following is noted: cited from earlier work. This is another data set of the same source.
The test system of data set [7] is TRPV3. As to conditions: Activation; cited from earlier work.
For data set [8] the following is noted: cited from earlier work. The source holds these as a separate data set.
The test system of data set [9] is TRPA1. The note with it: Inhibition; read-out: Effective concentration IC50; cited from earlier work.
Data set [10] concerns SCC-39 cells. Briefly: Live-cell calcium imaging of SCC cell line SCC-39. The note with it: 10 mM camphor; compared with SCC-13 cells. The data set is classed as cell-based, human. As to the method: as §2, §3
Data set [11] concerns normal human epidermal keratinocytes. Briefly: Ratiometric fura-2 live-cell calcium imaging of keratinocytes. Type of data set: cell-based. How it is done:
as §1, §2
TRP channels are selectively activated by endogenous and exogenous ligands at micromolar to millimolar concentrations. Since TRP channel activity increases over this range to allow graded Ca^2+ influx, receptor activity levels can be monitored by live-cell Ca^2+ imaging. A ratiometric calcium indicator (Fura-2) was employed to determine whether a panel of TRP-channel agonists elicited cytoplasmic calcium increases in human epidermal keratinocytes. (FIG. 1A-1E, FIG. 2A-2B, and Table 3).
Normal human keratinocytes were cultured in low-calcium media to promote proliferation or in 1.2-mM calcium media to induce differentiation. For live-cell imaging, keratinocytes were then washed and bathed in Ringer's solution containing 2 mM calcium so that calcium signals could be directly compared between cell populations.
In keratinocytes, increased intracellular calcium stimulates the terminal differentiation process. To determine whether camphor oil and its abundant constituents are directly bioactive on epithelial keratinocytes, a ratiometric Ca2+ indictor (Fura-2) was employed to test whether a panel of terpenes elicited cytoplasmic Ca2+ increases in undifferentiated human epidermal keratinocytes (FIG. 19A-19C). Keratinocytes were cultured according to our standard methods. For live-cell imaging, keratinocytes were bathed in Ringer's solution containing 2 mM Ca2+.

Data set [12] relates to skin tumors. As to conditions: mouse, in vivo; cited from earlier work.
Data set [13] has as its system DNA. As to conditions: cited from earlier work.

Sequence of TRPV1 (O35433 whole entry): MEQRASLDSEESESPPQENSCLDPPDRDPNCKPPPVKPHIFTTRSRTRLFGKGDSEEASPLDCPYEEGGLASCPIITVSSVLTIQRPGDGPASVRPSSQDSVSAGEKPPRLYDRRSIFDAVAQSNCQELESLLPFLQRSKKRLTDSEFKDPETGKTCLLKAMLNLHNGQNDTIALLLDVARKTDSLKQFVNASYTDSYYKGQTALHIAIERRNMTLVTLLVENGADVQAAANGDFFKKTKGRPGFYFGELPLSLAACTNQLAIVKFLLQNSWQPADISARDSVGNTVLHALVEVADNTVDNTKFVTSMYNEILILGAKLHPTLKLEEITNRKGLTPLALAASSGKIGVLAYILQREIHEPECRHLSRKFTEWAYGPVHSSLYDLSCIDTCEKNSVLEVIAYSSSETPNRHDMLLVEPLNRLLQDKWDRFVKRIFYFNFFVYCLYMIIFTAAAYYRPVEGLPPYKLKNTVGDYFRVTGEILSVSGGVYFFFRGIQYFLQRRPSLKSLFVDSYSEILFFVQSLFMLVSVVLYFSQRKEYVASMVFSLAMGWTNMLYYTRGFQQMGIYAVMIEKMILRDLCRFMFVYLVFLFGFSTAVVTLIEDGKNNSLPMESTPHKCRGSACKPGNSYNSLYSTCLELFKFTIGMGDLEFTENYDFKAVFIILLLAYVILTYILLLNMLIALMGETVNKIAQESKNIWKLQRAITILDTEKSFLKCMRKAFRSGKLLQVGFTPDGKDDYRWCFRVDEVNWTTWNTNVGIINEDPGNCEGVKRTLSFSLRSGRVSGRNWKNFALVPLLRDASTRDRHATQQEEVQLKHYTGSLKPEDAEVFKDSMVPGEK

Regarding `CC12CCC(CC1=O)C2(C)C` (racemic) [Camphor, 1,7,7 Trimethylbicyclo[2.2.1]heptan-2-one], the “sensation on skin of volunteers” value in data set [1] (20% solution in alcohol, normal skin temperatures (Green 1990)) is given as “no significant sensation of irritation or pain”. Further, the “doses reported to cause skin irritation as well as toxicity when ingested” value in data set [1] (in vivo) is above 20%. Further, the “concentration that arrests proliferation without inducing necrotic changes” value in [2] was in the range of 4 to 8 mM. Also, the “camphor-evoked cytoplasmic calcium signals” value in data set [3] is listed as “increased”. For the same compound, the figures for the “Effective concentration Range” value in data set [4] and in [7] were “Range = 1-10 mM” and “Range = 2-10 mM”, respectively. Besides, in data set [5] (15%, 20% or 30% (wt/wt) topical twice daily), the “expression of K10” value is given as “increased with camphor treatment in a dose-dependent manner; also recorded: upregulates”. The “K10 protein levels (K10/beta-tubulin) versus lower concentrations or vehicle” value in data set [5] (30% (wt/wt) topical twice daily) is “significantly higher”. In addition, the solubility in water entry in [6] was “slightly soluble”. The absorption result in data set [8] (after inhalation or dermal exposure (Baselt and Cravey 1990)) is given as “well absorbed”. Also, the plasma concentrations entry in data set [8] (low-dose (46.80 mg) dermal application (Martin et al. 2004)) is on record as “low plasma concentrations”. In addition, in [9], the IC50 was 68 µM. For the same compound, in data set [10], the camphor-evoked calcium responses result is recorded as “significantly fewer”. Moreover, the “proportion of cells showing Ca2+ increases, differentiated versus proliferating keratinocytes” value in data set [11] (10 mM camphor) worked out at 5.7 fold. Further, the “% Responders (differentiated) Mean ± SEM” value in data set [11] (differentiated in 1.2 mM Ca2+, responders F340:F380 increase ≧20%, 4αPDD 3 μM, camphor 10 mM, 2-APB 100 μM) was 37.5 ± 15.7%. Moreover, the “magnitude of camphor-evoked responses, increase over baseline” value is listed as 78±1% in data set [11] (differentiated keratinocytes) and 55±1% in [11] (growth conditions). Besides, the “% Responders (undifferentiated) Mean ± SEM or SD” value in data set [11] (growth conditions, responders F340:F380 increase ≧20%, saturating agonist (4αPDD 3 μM, camphor 10 mM, 2-APB 100 μM, capsaicin 1 μM, mustard oil 300 μM), SD for capsaicin and mustard oil) is on record as 6.5 ± 2.8%.
For the compound `Nc1ccc(C(=O)O)cc1` [p-Aminobenzoic acid], the “Results of safety: against skin tumors in mice” value in data set [12] is recorded as “Protects”. Besides, the “Results of safety: DNA defects” value in data set [13] is “increase”.
